The text below walks through data of patent US20230398090A1, “METHOD OF TREATING CORONAVIRUS INFECTION BY ADMINISTRATION OF ETHYL MERCURY OR THIOL DERIVATIVE THEREOF” (BEECH TREE LABS, INC., priority 2020, published 2023).

Where two headings read alike, the source gives them in different places. Some results are limits rather than exact numbers.

One experiment has as its system coronavirus (SARS-CoV-2). The following applies: for time until all of the subject's symptoms resolved after initial treatment: 200 ng sublingual every 15 minutes for one hour, then hourly until bedtime.
The test system of experiment [1] is pro-inflammatory cytokines; anti-inflammatory genes. The following applies: genomic studies, no details given.
Setting [2] is: Example 4: person, after less than 48 hours of therapy.

In the case of `C[CH2][Hg][S]c1ccccc1C(=O)[O-].[Na+]` [thimerosal], in the experiment with coronavirus (SARS-CoV-2) (Example 1: person, positive SARS-CoV-2 test, fever 104° F., shortness of breath, cough), the “time until all of the subject's symptoms resolved after initial treatment” value fell in the range of 20 to 24 h. For the same molecule, the “time until all of the subject's symptoms resolved after initial treatment” value in the experiment on coronavirus (SARS-CoV-2) (Example 2: person, symptoms of SARS-CoV-2 infection (fever 103° F., lethargy, shortness of breath, achiness)) is at most 24 h. In addition, in the experiment with coronavirus (SARS-CoV-2) (Example 3: person, 72 hours after initial treatment), the weakness entry is reported as “only partially improved”. For the same molecule, the “time until all of the subject's symptoms resolved after initial treatment (with the exception of weakness)” value in the experiment with coronavirus (SARS-CoV-2) (Example 3: person, presumptive SARS-CoV-2 (fever, weakness, shortness of breath, cough), 200 ng sublingual, day 1 schedule, then six times daily on days two and three) amounted to 72 h. Besides, in the experiment with coronavirus (SARS-CoV-2) (setting [2]), the chest pain result is “not completely eliminated”; the “subject-reported energy, appetite and taste” value was “increased energy, increased appetite and improved ability to taste”. For the same molecule, the “time of therapy until subject reported diminution of all symptoms” value in the experiment with coronavirus (SARS-CoV-2) (Example 4: person, positive SARS-CoV-2 test (cough, mild fever, aching, decreased energy, stomach pain), 200 ng sublingual, day 1 schedule, then six times daily on day two) is given as “less than 48 hours”. Also, in experiment [1], the “effect on other anti-inflammatory genes” value is listed as “up-regulating” and the “effect on several pro-inflammatory cytokines” value is reported as “down-regulates”.
